Results: US6589993B2, “Treating vancomycin-intermediates and multiresistant staphylococci infection with thiamphenicol or a salt thereof” (Zambon Group S.p.A., priority 2000, dated 2003)
Values after ≈ are worked out from the molar mass of the structure shown. Read-outs that look alike come from different tables or passages of the source.

Tests used:
[1] = test system: S. aureus vancomycin-intermediates (VISA) Met-R strains; test: MIC determination (NCCLS broth microdilution), VISA Met-R strains; format: cell-based, Staphylococcus aureus; settings: for MIC: antibiotype Oxa, Cip, Clin, Ery
Summary of the method: (§1)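 NCCLS broth microdilution in cation-supplemented Mueller-Hinton broth, final inoculum 5×10^5 from exponential-phase bacteria; 2% NaCl added for methicillin testing. MIC taken as lowest concentration preventing visible growth after 18–24 h at 37 °C, with S. aureus ATCC 29213 as QC strain.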

[2] = test system: S. aureus Met-R multiresistant strains; test: MIC determination (NCCLS broth microdilution), methicillin-resistant multiresistant S. aureus strains; format: cell-based, Staphylococcus aureus; settings: for MIC: antibiotype Oxa, Ery, read-out: MIC
Summary of the method: as §1

Staphylococci = settings: toward strains of Staphylococci; Kayser et al. 1974; cited from earlier work
[3] = Staphylococcus aureus, Strain 51 VISA, read-out: MIC
[4] = Staphylococcus aureus, Strain 1, Cip, Clin, Gm
[5] = Staphylococcus aureus, Strain 2, Clin, Fos
[6] = Staphylococcus aureus, Strain 3, Cip, Clin, Gm
[7] = Staphylococcus aureus, Strain 4, Cip, Gm
[8] = Staphylococcus aureus, Strain 5, Cip, Clin
[9] = Staphylococcus aureus, Strain 6, Clin, Gm
[10] = Staphylococcus aureus, Strain 7, Cip, Gm
[11] = Staphylococcus aureus, Strain 8, Cip, Clin
[12] = Staphylococcus aureus, Strain 9, Cip, Clin, Gm
[13] = Staphylococcus aureus, Strain 10, Cip, Clin, Gm
[14] = Staphylococcus aureus, Strain 11, Clin, Rif
[15] = Staphylococcus aureus, Strain 12, Cip, Clin
[16] = Staphylococcus aureus, Strain 13, Cip, Clin
[17] = Staphylococcus aureus, Strain 14, Clin, Cip
[18] = Staphylococcus aureus, Strain 15, Cip, Clin, Gm
[19] = Staphylococcus aureus, Strain 16, Cip, Clin
[20] = Staphylococcus aureus, Strain 17, Cip, Clin
[21] = Staphylococcus aureus, Strain 18, Cip, Clin, Gm
[22] = Staphylococcus aureus, Strain 19, Cip, Clin, Gm
[23] = Staphylococcus aureus, Strain 20, Cip, Clin, Gm
[24] = Staphylococcus aureus, Strain 21, Cip, Clin, Gm
[25] = Staphylococcus aureus, Strain 22, Cip, Clin
[26] = Staphylococcus aureus, Strain 23, Cip, Clin, Gm
[27] = Staphylococcus aureus, Strain 24, Cip, Clin, Gm
[28] = Staphylococcus aureus, Strain 25, Cip, Clin, Gm
[29] = Staphylococcus aureus, Strain 26, Cip, Clin, Fos, Gm
[30] = Staphylococcus aureus, Strain 27, Cip, Clin, Fos, Gm
[31] = Staphylococcus aureus, Strain 28, Cip, Clin, Gm
[32] = Staphylococcus aureus, Strain 29, Clin, Fos
[33] = Staphylococcus aureus, Strain 30, Cip, Clin, Gm, SXT, Dox
[34] = Staphylococcus aureus, Strain 31, Cip, Clin, Fox, Gm
[35] = Staphylococcus aureus, Strain 32, Cip, Clin, Gm, SXT, Rif
[36] = Staphylococcus aureus, Strain 33, Cip, Clin, Gm
[37] = Staphylococcus aureus, Strain 34, Cip, Clin, Gm
[38] = Staphylococcus aureus, Strain 35, Cip, Clin, Gm
[39] = Staphylococcus aureus, Strain 36, Cip, Clin, Fos
[40] = Staphylococcus aureus, Strain 37, Cip, Clin, Fos, Gm
[41] = Staphylococcus aureus, Strain 38, Cip, Gm
[42] = Staphylococcus aureus, Strain 39, Cip, Clin, Fos, Gm
[43] = Staphylococcus aureus, Strain 40, Cip, Clin, Gm
[44] = Staphylococcus aureus, Strain 41, Cip, Clin
[45] = Staphylococcus aureus, Strain 42, Cip, Clin, Gm
[46] = Staphylococcus aureus, Strain 43, Cip, Clin, Gm
[47] = Staphylococcus aureus, Strain 44, Cip, Clin, Gm, Rif, Dox
[48] = Staphylococcus aureus, Strain 45, Cip, Clin, Gm, Rif, Dox, Fos
[49] = Staphylococcus aureus, Strain 46, Clin, Fos
[50] = Staphylococcus aureus, Strain 47, Cip, Clin, Gm
[51] = Staphylococcus aureus, Strain 48, Cip, Clin
[52] = Staphylococcus aureus, Strain 49, Cip, Gm
[53] = Staphylococcus aureus, Strain 50, Cip, Clin, Gm, Rif, Dox

## CS(=O)(=O)c1ccc([C@@H](O)[C@@H](CO)NC(=O)C(Cl)Cl)cc1 [Thiamphenicol, thiamphenicol]
[1]; [3]
  MIC: 16 µg/mL (≈ 44.9 µM)
[1]; Strain 52 VISA
  MIC: 16 µg/mL (≈ 44.9 µM)
[1]; VISA (2) Met-R
  MIC Range: 16 µg/mL (≈ 44.9 µM)
[1]; VISA (2) Met-R, NCCLS (1999) breakpoints
  % susceptible at breakpoint: 100%
[2]; S. aureus (50) Met-R, NCCLS (1999) breakpoints
  % susceptible at breakpoint: 66%
[2]; [4]
  MIC: 8 µg/mL (≈ 22.5 µM)
[2]; [5]
  MIC: > 64 µg/mL
[2]; [6]
  MIC: 16 µg/mL (≈ 44.9 µM)
[2]; [7]
  MIC: 8 µg/mL (≈ 22.5 µM)
[2]; [8]
  MIC: > 64 µg/mL
[2]; [9]
  MIC: > 64 µg/mL
[2]; [10]
  MIC: 16 µg/mL (≈ 44.9 µM)
[2]; [11]
  MIC: > 64 µg/mL
[2]; [12]
  MIC: 8 µg/mL (≈ 22.5 µM)
[2]; [13]
  MIC: 4 µg/mL (≈ 11.2 µM)
[2]; [14]
  MIC: > 64 µg/mL
[2]; [15]
  MIC: > 64 µg/mL
[2]; [16]
  MIC: 16 µg/mL (≈ 44.9 µM)
[2]; [17]
  MIC: 16 µg/mL (≈ 44.9 µM)
[2]; [18]
  MIC: 16 µg/mL (≈ 44.9 µM)
[2]; [19]
  MIC: 8 µg/mL (≈ 22.5 µM)
[2]; [20]
  MIC: 16 µg/mL (≈ 44.9 µM)
[2]; [21]
  MIC: > 64 µg/mL
[2]; [22]
  MIC: 16 µg/mL (≈ 44.9 µM)
[2]; [23]
  MIC: > 64 µg/mL
[2]; [24]
  MIC: > 64 µg/mL
[2]; [25]
  MIC: 16 µg/mL (≈ 44.9 µM)
[2]; [26]
  MIC: > 64 µg/mL
[2]; [27]
  MIC: > 64 µg/mL
[2]; [28]
  MIC: 16 µg/mL (≈ 44.9 µM)
[2]; [29]
  MIC: 16 µg/mL (≈ 44.9 µM)
[2]; [30]
  MIC: 16 µg/mL (≈ 44.9 µM)
[2]; [31]
  MIC: > 64 µg/mL
[2]; [32]
  MIC: 16 µg/mL (≈ 44.9 µM)
[2]; [33]
  MIC: 16 µg/mL (≈ 44.9 µM)
[2]; [34]
  MIC: 16 µg/mL (≈ 44.9 µM)
[2]; [35]
  MIC: > 64 µg/mL
[2]; [36]
  MIC: > 64 µg/mL
[2]; [37]
  MIC: > 64 µg/mL
[2]; [38]
  MIC: 16 µg/mL (≈ 44.9 µM)
[2]; [39]
  MIC: 16 µg/mL (≈ 44.9 µM)
[2]; [40]
  MIC: 16 µg/mL (≈ 44.9 µM)
[2]; [41]
  MIC: 8 µg/mL (≈ 22.5 µM)
[2]; [42]
  MIC: 16 µg/mL (≈ 44.9 µM)
[2]; [43]
  MIC: 16 µg/mL (≈ 44.9 µM)
[2]; [44]
  MIC: 16 µg/mL (≈ 44.9 µM)
[2]; [45]
  MIC: 8 µg/mL (≈ 22.5 µM)
[2]; [46]
  MIC: 16 µg/mL (≈ 44.9 µM)
[2]; [47]
  MIC: 16 µg/mL (≈ 44.9 µM)
[2]; [48]
  MIC: 16 µg/mL (≈ 44.9 µM)
[2]; [49]
  MIC: 16 µg/mL (≈ 44.9 µM)
[2]; [50]
  MIC: 8 µg/mL (≈ 22.5 µM)
[2]; [51]
  MIC: > 64 µg/mL
[2]; [52]
  MIC: 16 µg/mL (≈ 44.9 µM)
[2]; [53]
  MIC: > 64 µg/mL
[2]; Staphylococcus aureus, S. aureus (50) Met-R, read-out: MIC 50%
  MIC50: 16 µg/mL (≈ 44.9 µM)
[2]; Staphylococcus aureus, S. aureus (50) Met-R, read-out: MIC 90%
  MIC90: > 64 µg/mL
[2]; VISA and multiresistant Staphylococcus aureus strains, in vitro
  activity (MIC) compared with cloramphenicol: comparable to that as of cloramphenicol
Staphylococci
  in vitro activity relative to chloramphenicol (times less active): 2 to 4 times

## COc1cccc(OC)c1C(=O)N[C@@H]1C(=O)N2[C@@H]1SC(C)(C)[C@@H]2C(=O)O [Meth, methicilline]
[1]; [3]
  MIC: > 64 µg/mL
[1]; Strain 52 VISA
  MIC: >64 µg/mL
[2]; [4]
  MIC: > 64 µg/mL
[2]; [5]
  MIC: > 64 µg/mL
[2]; [6]
  MIC: > 64 µg/mL
[2]; [7]
  MIC: > 64 µg/mL
[2]; [8]
  MIC: > 64 µg/mL
[2]; [9]
  MIC: > 64 µg/mL
[2]; [10]
  MIC: 32 µg/mL (≈ 84.1 µM)
[2]; [11]
  MIC: > 64 µg/mL
[2]; [12]
  MIC: > 64 µg/mL
[2]; [13]
  MIC: > 64 µg/mL
[2]; [14]
  MIC: > 64 µg/mL
[2]; [15]
  MIC: > 64 µg/mL
[2]; [16]
  MIC: > 64 µg/mL
[2]; [17]
  MIC: > 64 µg/mL
[2]; [18]
  MIC: > 64 µg/mL
[2]; [19]
  MIC: > 64 µg/mL
[2]; [20]
  MIC: 64 µg/mL (≈ 168 µM)
[2]; [21]
  MIC: > 64 µg/mL
[2]; [22]
  MIC: > 64 µg/mL
[2]; [23]
  MIC: > 64 µg/mL
[2]; [24]
  MIC: > 64 µg/mL
[2]; [25]
  MIC: > 64 µg/mL
[2]; [26]
  MIC: > 64 µg/mL
[2]; [27]
  MIC: > 64 µg/mL
[2]; [28]
  MIC: > 64 µg/mL
[2]; [29]
  MIC: > 64 µg/mL
[2]; [30]
  MIC: > 64 µg/mL
[2]; [31]
  MIC: > 64 µg/mL
[2]; [32]
  MIC: > 64 µg/mL
[2]; [33]
  MIC: 64 µg/mL (≈ 168 µM)
[2]; [34]
  MIC: > 64 µg/mL
[2]; [35]
  MIC: > 64 µg/mL
[2]; [36]
  MIC: > 64 µg/mL
[2]; [37]
  MIC: > 64 µg/mL
[2]; [38]
  MIC: > 64 µg/mL
[2]; [39]
  MIC: > 64 µg/mL
[2]; [40]
  MIC: 64 µg/mL (≈ 168 µM)
[2]; [41]
  MIC: > 64 µg/mL
[2]; [42]
  MIC: 64 µg/mL (≈ 168 µM)
[2]; [43]
  MIC: > 64 µg/mL
[2]; [44]
  MIC: > 64 µg/mL
[2]; [45]
  MIC: > 64 µg/mL
[2]; [46]
  MIC: > 64 µg/mL
[2]; [47]
  MIC: 64 µg/mL (≈ 168 µM)
[2]; [48]
  MIC: > 64 µg/mL
[2]; [49]
  MIC: > 64 µg/mL
[2]; [50]
  MIC: > 64 µg/mL
[2]; [51]
  MIC: 64 µg/mL (≈ 168 µM)
[2]; [52]
  MIC: > 64 µg/mL
[2]; [53]
  MIC: > 64 µg/mL
